{
  "source": "patent US5622936A",
  "about": "(priority 1988, dated 1997)",
  "key": {"[1]": {"assay": "Acute toxicity in male CD2 F1 mice with autopsy", "type": "in vivo, mouse", "conditions": "100 and 1000 mg/kg i.p.", "from_the_text": "(§1) Autopsy of the animals after 28 days gave no findings. […] The result of autopsy (among others liver, kidneys, spleen, brain, bone marrow) on day 15 after the onset of treatment gave no finding."}, "[2]": {"system": "bone-marrow", "assay": "Bone-marrow toxicity"}, "[3]": {"system": "mammary tumor cell-line 1C29", "assay": "Cytotoxic activity in vitro, mammary tumor cell line 1C29", "type": "cell-based, rat", "from_the_text": "(§2) This was confirmed by measuring the biological efficiency, namely the cytotoxic activity in vitro by studies done on a murine retrothelial sarcoma, and on rat mammary tumor cell lines, and on Eb/Esb cell lines."}, "[4]": {"system": "mammary tumor cell-line 1C32", "assay": "Cytotoxic activity in vitro, mammary tumor cell line 1C32", "type": "cell-based, rat", "from_the_text": "as §2"}, "[5]": {"system": "mammary tumor cell-line 1C39", "assay": "Cytotoxic activity in vitro, mammary tumor cell line 1C39", "type": "cell-based, rat", "from_the_text": "as §2"}, "[6]": {"system": "glycosidases", "assay": "Enzymatic cleavage of the glycosidic bond by glycosidases (release of IPM)", "type": "biochemical", "conditions": "glycosidases / enzyme mixtures, TLC, NBP detection", "experimental": "On incubation of the glycosides in HEPES or water with corresponding glycosidases a rapid cleavage of the glycosidic bond could be observed.\n(§3) Because each in 50 and 51 two glycosidic bonds are present, showing the same (51β) or a different configuration (f.i. 50α), along with single glucosidases enzyme mixtures were used to check the enzymatic release of IPM. The enzymatic cieavage of the pure anomeric conjugates 50 and 51 was monitored by TLC; intact conjugates or the cleavage products 28α, 28β or IPM were detected with NBP."}, "[7]": {"assay": "Stability in methanolic solution (TLC analysis)", "type": "physicochemical", "conditions": "room temperature"}, "[8]": {"system": "β-glucosidase", "assay": "Cleavage by a single enzyme, β-glucosidase (TLC)", "type": "biochemical", "from_the_text": "as §3"}, "[9]": {"assay": "Toxicity in BD6 rats with transplanted 1C32 tumor with autopsy", "type": "in vivo, rat", "from_the_text": "as §1"}, "[10]": {"system": "retrothelial sarcoma cells"}},
  "data": [
    {"molecule": "O=P(NCCCl)(NCCCl)O[C@@H]1O[C@H](CO)[C@@H](O)[C@H](O)[C@H]1O", "note": "[Compound 28β, β-D-Glucopyranosyl N,N'-di-(2-chloroethyl) phosphoric acid diamide]", "values": [
      {"measurement": "acute toxicity", "setting": "[1]", "value": "no acute toxicity could be observed"},
      {"measurement": "autopsy", "setting": "[1]; after 28 days", "value": "no findings"},
      {"measurement": "bone-marrow toxicity", "setting": "[2]", "value": "very low"}
    ]},
    {"molecule": "O=P(NCCCl)(NCCCl)O[C@@H]1O[C@H](CO)[C@H](O)[C@H](O)[C@H]1O", "note": "[Compound 29β, β-D-Galactopyranosyl N,N'-di-(2-chloroethyl) phosphoric acid diamide]", "values": [
      {"measurement": "most effective agent (cytotoxic activity)", "setting": "[3]", "value": "always the most effective agent"},
      {"measurement": "most effective agent (cytotoxic activity)", "setting": "[4]", "value": "always the most effective agent"},
      {"measurement": "most effective agent (cytotoxic activity)", "setting": "[5]", "value": "always the most effective agent"}
    ]},
    {"molecule": "O=P(NCCCl)(NCCCl)OC1O[C@H](CO)[C@@H](O[C@@H]2O[C@H](CO)[C@H](O)[C@H](O)[C@H]2O)[C@H](O)[C@H]1O", "note": "(some centres unmarked) [Compound 50]", "values": [
      {"measurement": "cleavage required for the release of IPM", "setting": "[6]", "value": "cleavage of two different glycosidic bonds was required"},
      {"measurement": "stability", "setting": "[7]", "value": "stable"}
    ]},
    {"molecule": "O=P(NCCCl)(NCCCl)OC1O[C@H](CO)[C@@H](O[C@@H]2O[C@H](CO)[C@@H](O)[C@H](O)[C@H]2O)[C@H](O)[C@H]1O", "note": "(some centres unmarked) [Compound 51]", "values": [
      {"measurement": "stability", "setting": "[7]", "value": "stable"}
    ]},
    {"molecule": "O=P(NCCCl)(NCCCl)O[C@H]1O[C@H](CO)[C@@H](O[C@@H]2O[C@H](CO)[C@@H](O)[C@H](O)[C@H]2O)[C@H](O)[C@H]1O", "note": "[Compound 51α, 4-O-(β-D-glucopyranosyl) α-D-glucopyranosyl N,N'-di-(2-chlorethyl) phosphoric acid diamide]", "values": [
      {"measurement": "cleavage required for the release of IPM", "setting": "[6]", "value": "cleavage of two different glycosidic bonds was required"}
    ]},
    {"molecule": "O=P(NCCCl)(NCCCl)O[C@@H]1O[C@H](CO)[C@@H](O[C@@H]2O[C@H](CO)[C@@H](O)[C@H](O)[C@H]2O)[C@H](O)[C@H]1O", "note": "[Compound 51β, 4-O-(β-D-Glucopyranosyl) β-D-glucopyranosyl N,N'-di-(2-chloroethyl) phosphoric acid diamide]", "values": [
      {"measurement": "complete cleavage by a single enzyme", "setting": "[8]", "value": "could be completely cleaved by a single enzyme"}
    ]},
    {"molecule": "O=P(NCCCl)(NCCCl)OC1O[C@H](CO)[C@H](O)[C@H](O)[C@H]1O", "note": "(some centres unmarked) [Gal-IPM]", "values": [
      {"measurement": "toxicity", "setting": "[9]; BD6 rats with transplanted 1C32 tumor, 5-122.5 and 5-245 mg/kg, resp.", "value": "did not show any toxicity"},
      {"measurement": "autopsy", "setting": "[9]; day 15 after onset of treatment, liver, kidneys, spleen, brain, bone marrow", "value": "no finding"}
    ]},
    {"molecule": "O=P(O)(NCCCl)NCCCl", "note": "[IPM]", "values": [
      {"measurement": "cytotoxicity", "setting": "[10]", "value": "cytotoxicity"}
    ]}
  ]
}
